Patent US4732970A, “Antitumor amino acid and peptide derivatives of 1,4-bis(aminoalkyl and hydroxy-aminoalkyl)amino)-5,8-dihydroxyanthraquinones” (priority 1986, dated 1988)

Legend:
[1] = test system: lymphocytic leukemia P388; assay: Lymphocytic Leukemia P388 Test; assay type: in vivo, BDF1 mice; conditions: for Median Survival: BDF1 mice; for T/C × 100 (%): ratio of survival time treated/control
Outline: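 BDF1 mice (5–6 per group) were inoculated i.p. with 10^6 P388 cells, then dosed i.p. on days 1, 5 and 9 at various doses. Survival was followed for 60 days, and median survival time and the treated/control (T/C) survival ratio were calculated.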

[2] = test system: melanotic melanoma B16 tumor; assay: Melanotic Melanoma B16 test; assay type: in vivo, BDF1 mice; conditions: for Median Survival: BDF1 mice; for T/C × 100 (%): ratio of survival time treated/control
Description: The animals used were BDFl mice, all of the same sex, weighing a minimum of 17 g and all within a 3 g weight range. There were 12 animals per test group. A 1 g portion of melanotic melanoma B16 tumor was homogenized in 10 ml of cold balanced salt solution and a 0.5 ml aliquot of the homogenate was implanted intraperitoneally into each of the test mice. The test compounds were administered intraperitoneally on days 1, 5 and 9 (relative to tumor inoculation) at various doses. The animals were weighed and survivors recorded on a regular basis for 60 days. The median survival time and ratio of survival time for treated (T)/control (C) animals were calculated. The positive control compound was 1,4-bis[(2-aminoethyl)amino]-5,8-dihydroxyanthraquinone, dihydrochloride (U.S. patent application Ser. No. 87,354, filed Oct. 23, 1979).

[3] = dose 0.75 mg/kg intraperitoneally on days 1, 5 and 9
[4] = dose 1.5 mg/kg intraperitoneally on days 1, 5 and 9
[5] = dose 3 mg/kg intraperitoneally on days 1, 5 and 9

Cl.Cl.N[C@@H](CCC(=O)O)C(=O)NCCNc1ccc(NCCNC(=O)[C@@H](N)CCC(=O)O)c2c1C(=O)c1c(O)ccc(O)c1C2=O (relative stereo) [Example 23, [S-(R*,R*)]-5,5'-[(9,10-Dihydro-5,8-dihydroxy-9,10-dioxo-1,4-anthracenediyl)bis(imino-2,1-ethanediylimino)]-bis[4-amino-5-oxo-pentanoic acid], dihydrochloride]
Median Survival [1, 3]: 22.0 days | T/C × 100 (%) [1, 3]: 220% | Median Survival [1, 4]: 24.5 days | T/C × 100 (%) [1, 4]: 245% | Median Survival [1, 5]: 41.0 days | T/C × 100 (%) [1, 5]: 410% | Median Survival [2, 3]: 27.5 days | T/C × 100 (%) [2, 3]: 162% | Median Survival [2, 4]: 31.0 days | T/C × 100 (%) [2, 4]: 182% | Median Survival [2, 5]: 22.0 days | T/C × 100 (%) [2, 5]: 129%

Cl.Cl.NCCNc1ccc(NCCN)c2c1C(=O)c1c(O)ccc(O)c1C2=O [1,4-bis[(2-aminoethyl)amino]-5,8-dihydroxyanthraquinone, dihydrochloride, reference compound]
Median Survival [2, 4]: 46.5 days | T/C × 100 (%) [2, 4]: 274%

CC(C)C[C@H](NC(=O)[C@H](C)NC(=O)[C@@H](N)CC(=O)O)C(=O)NCCNc1ccc(NCCNC(=O)[C@H](CC(C)C)NC(=O)[C@H](C)NC(=O)[C@@H](N)CC(=O)O)c2c1C(=O)c1c(O)ccc(O)c1C2=O.O=C(O)C(F)(F)F.O=C(O)C(F)(F)F [Example 84, N,N'-[(9,10-Dihydro-5,8-dihydroxy-9,10-dioxo-1,4-anthracenediyl)bis(imino-2,1-ethanediyl)]bis[L-α-aspartyl-L-alanyl-L-leucinamide]bis(trifluoroacetate)]
Median Survival [1, 3]: 24.0 days | T/C × 100 (%) [1, 3]: 240% | Median Survival [1, 4]: 21.5 days | T/C × 100 (%) [1, 4]: 215% | Median Survival [1, 5]: 28.0 days | T/C × 100 (%) [1, 5]: 280%

Br.Br.N=C(N)NCCC[C@H](N)C(=O)NCCNc1ccc(NCCNC(=O)[C@@H](N)CCCNC(=N)N)c2c1C(=O)c1c(O)ccc(O)c1C2=O [Example 86, N,N'-[(9,10-Dihydro-5,8-dihydroxy-9,10-dioxo-1,4-anthracenediyl)bis(imino-2,1-ethanediyl)]-L-arginine, dihydrobromide]
Median Survival [1, 3]: 22.0 days | T/C × 100 (%) [1, 3]: 200% | Median Survival [1, 4]: 27.0 days | T/C × 100 (%) [1, 4]: 245% | Median Survival [1, 5]: 34.5 days | T/C × 100 (%) [1, 5]: 314%

Br.Br.C[C@H](NCCNc1ccc(NCCN[C@@H](C)C(=O)N[C@@H](CCCNC(=N)N)C(=O)OC(C)(C)C)c2c1C(=O)c1c(O)ccc(O)c1C2=O)C(=O)N[C@@H](CCCNC(=N)N)C(=O)OC(C)(C)C [Example 87, N,N'-[(9,10-Dihydro-5,8-dihydroxy-9,10-dioxo-1,4-anthracenediyl)bis(imino-2,-ethanediyl)]bis[L-alanyl-L-arginine]bis(1,1-dimethylethyl)ester, dihydrobromide]
Median Survival [1, 3]: 17.0 days | T/C × 100 (%) [1, 3]: 170% | Median Survival [1, 4]: 19.0 days | T/C × 100 (%) [1, 4]: 190% | Median Survival [1, 5]: 20.5 days | T/C × 100 (%) [1, 5]: 205%

Br.Br.Br.Br.C[C@H](N)C(=O)N[C@@H](CCCNC(=N)N)C(=O)NCCNc1ccc(NCCNC(=O)[C@H](CCCNC(=N)N)NC(=O)[C@H](C)N)c2c1C(=O)c1c(O)ccc(O)c1C2=O [Example 88, N,N'-[(9,10-Dihydro-5,8-dihydroxy-9,10-dioxo-1,4-anthracenediyl)bis(imino-2,1-ethanediyl)]bis-[L-alanyl-L-argininamide]tetrahydrobromide]
Median Survival [1, 3]: 22.5 days | T/C × 100 (%) [1, 3]: 225% | Median Survival [1, 4]: 33.0 days | T/C × 100 (%) [1, 4]: 330% | Median Survival [1, 5]: 44.0 days | T/C × 100 (%) [1, 5]: 440%

Br.Br.C[C@H](NC(=O)OC(C)(C)C)C(=O)N[C@@H](C)C(=O)N[C@@H](CCCNC(=N)N)C(=O)NCCNc1ccc(NCCNC(=O)[C@H](CCCNC(=N)N)NC(=O)[C@H](C)NC(=O)[C@H](C)NC(=O)OC(C)(C)C)c2c1C(=O)c1c(O)ccc(O)c1C2=O [Example 89, N,N'-[(9,10-Dihydro-5 8-dihydroxy-9,10-dioxo-1,4-anthracenediyl)bis(imino-2,1-ethanediyl)]bis[N-[(1,1-dimethylethoxy)carbonyl]-L-alanyl-L-alanyl-L-argininamide]-dihydrobromide]
Median Survival [1, 3]: 17.0 days | T/C × 100 (%) [1, 3]: 155% | Median Survival [1, 4]: 17.5 days | T/C × 100 (%) [1, 4]: 159% | Median Survival [1, 5]: 24.5 days | T/C × 100 (%) [1, 5]: 223%

Br.Br.C[C@H](N)C(=O)N[C@@H](C)C(=O)N[C@@H](CCCNC(=N)N)C(=O)NCCNc1ccc(NCCNC(=O)[C@H](CCCNC(=N)N)NC(=O)[C@H](C)NC(=O)[C@H](C)N)c2c1C(=O)c1c(O)ccc(O)c1C2=O.O=C(O)C(F)(F)F.O=C(O)C(F)(F)F [Example 90, N,N'-[(9,10-Dihydro-5,8-dihydroxy-9,10-dioxo-1,4-anthracenediyl)bis(imino-2,1-ethanediyl)]bis[L-alanyl-L-alanyl-L-argininamide], dihydrobromide, bis(trifluoroacetate)]
Median Survival [1, 3]: 23.5 days | T/C × 100 (%) [1, 3]: 214% | Median Survival [1, 4]: 23.5 days | T/C × 100 (%) [1, 4]: 214% | Median Survival [1, 5]: 19.5 days | T/C × 100 (%) [1, 5]: 177%

Br.Br.C[C@H](NC(=O)[C@H](CO)NC(=O)[C@H](CCCNC(=N)N)NC(=O)OCc1ccccc1)C(=O)NCCNc1ccc(NCCNC(=O)[C@H](C)NC(=O)[C@H](CO)NC(=O)[C@H](CCCNC(=N)N)NC(=O)OCc2ccccc2)c2c1C(=O)c1c(O)ccc(O)c1C2=O [Example 93, N,N'-[(9,10-Dihydro-5,8-dihydroxy-9,10-dioxo-1,4-anthracencdiyl)bis(imino-2,1-ethanediyl)][L-alanyl-L-seryl-carbobenzyloxy-L-argininamide]dihydrobromide]
Median Survival [1, 3]: 22.0 days | T/C × 100 (%) [1, 3]: 200% | Median Survival [1, 4]: 22.5 days | T/C × 100 (%) [1, 4]: 205% | Median Survival [1, 5]: 24.5 days | T/C × 100 (%) [1, 5]: 223%

Br.Br.Br.Br.C[C@H](NC(=O)[C@H](CO)NC(=O)[C@@H](N)CCCNC(=N)N)C(=O)NCCNc1ccc(NCCNC(=O)[C@H](C)NC(=O)[C@H](CO)NC(=O)[C@@H](N)CCCNC(=N)N)c2c1C(=O)c1c(O)ccc(O)c1C2=O [Example 94, N,N'-[(9,10-Dihydro-5,8-dihydroxy-9,10-dioxo-1,4-anthracenediyl)bis(imino-2,1-ethanediyl)]bis[L-arginyl-L-seryl-L-alaninamide], tetrahydrobromide]
Median Survival [1, 3]: 21.5 days | T/C × 100 (%) [1, 3]: 195% | Median Survival [1, 4]: 21.0 days | T/C × 100 (%) [1, 4]: 191% | Median Survival [1, 5]: 34.5 days | T/C × 100 (%) [1, 5]: 314%

N,N'-[(9,10-Dihydro-5,8-dihydroxy-9,10-dioxo-1,4-anthracenediyl)bis(imino-2,1-ethanediyl)]bis[L-alanyl-L-alanine]bis(trifluoroacetate) [Example 72]
Median Survival [1, 3]: 20.0 days | T/C × 100 (%) [1, 3]: 190% | Median Survival [1, 4]: 20.0 days | T/C × 100 (%) [1, 4]: 190% | Median Survival [1, 5]: 23.0 days | T/C × 100 (%) [1, 5]: 219%

N,N'-[(9,10-Dihydro-5,8-dihydroxy-9,10-oxo-1,4-anthracenediyl)bis(imino-2,1-ethanediyl) ]bis[L-arginine(phenylmethyl)]ester, dihydrobromide [Example 85]
Median Survival [1, 3]: 21.5 days | T/C × 100 (%) [1, 3]: 179% | Median Survival [1, 4]: 21.0 days | T/C × 100 (%) [1, 4]: 175% | Median Survival [1, 5]: 22.5 days | T/C × 100 (%) [1, 5]: 188%

[S-(R*,R*)][(9,10-Dihydro-5,8-dihydroxy-9,10-dioxo-1,4-anthracenediyl)bis[1-[3-[[imino(nitroamino)methyl]amino]propyl]-2-oxo-2,1-ethanediyl]]bis-carbamic acid, bis(phenylmethyl)ester [Example 91]
Median Survival [1, 3]: 15.5 days | T/C × 100 (%) [1, 3]: 141% | Median Survival [1, 4]: 16.5 days | T/C × 100 (%) [1, 4]: 150% | Median Survival [1, 5]: 18.0 days | T/C × 100 (%) [1, 5]: 164%

[S-(R*,R*)][(9,10-Dihydro-5,8-dihydroxy-9,10-dioxo-1,4-anthracenediyl)bis[imino-2,1-ethanediylimino[1-[3-[[imino[[(phenylmethoxy)carbonyl]amino]methyl][(phenylmethoxy)carbonyl]propyl]-2-oxo-2,1-ethanediyl]]]carbamic acid, bis(phenylmethyl)ester [Example 95]
Median Survival [1, 3]: 14.0 days | T/C × 100 (%) [1, 3]: 127% | Median Survival [1, 4]: 16.0 days | T/C × 100 (%) [1, 4]: 145% | Median Survival [1, 5]: 16.0 days | T/C × 100 (%) [1, 5]: 145%
